Laboratory results as given in patent US9321747B2, “Acid addition salt of substituted pyridine compound” (DAIICHI SANKYO COMPANY, LIMITED, priority 2012, dated 2016).
Counter-ions that a name gives are not always drawn.

Biological target: recombinant human CETP protein (Homo sapiens (Human), UniProt P11597)
Test: Test of CETP inhibition activity (in vitro, buffer-based)
Type: biochemical
Details: [14C]-cholesteryl ester transfer from reconstituted HDL to acceptor lipoprotein, 37° C., 60 minutes, PBS buffer
Procedure: Test of CETP Inhibition Activity (In Vitro, Buffer-Based)
(1) Preparation of Reconstituted HDL
Cholesterol (1.125 μmol), phosphatidyl choline (4.5 μmol) and [^14C]-labeled cholesteryl ester (2.0 μCi; 40 μl) were taken in a glass test tube and well mixed with a vortex, and dried under a nitrogen gas current so that it formed a thin film. The obtained mixture was dissolved in ethanol (200 μl), which was designated as Solution A. A PBS solution [a mixed solution of Na2HPO4 (30 mM), KH2PO4 (8.8 mM), NaCl (60 mM) and EDTA (pH 7.4; 0.67 mM); 4 ml] was taken in a tube and the reaction solution was vigorously stirred with a vortex under a nitrogen current. The above-described Solution A was gently injected into this mixture with a syringe and the reaction solution was vigorously stirred with a vortex for 5 minutes under a nitrogen current. Sodium cholate (200 mM; 0.38 ml) was added to the obtained mixture and the reaction solution was stirred for 2 minutes. ApoA-I protein (3 mg) was added to the obtained mixture and the reaction solution was stirred for 2 minutes. The obtained mixture was adjusted to 5 ml with the PBS solution and then dialyzed with the PBS solution. The obtained mixture was designated as the reconstituted HDL.
(2) Preparation of Acceptor Lipoprotein
NaBr was added to the plasma of a healthy person and the density of the mixture was adjusted to 1.019, and the mixture was subjected to density gradient centrifugation (40000 rpm, for 16 hours) to remove the fraction having a density of less than 1.019. NaBr was added to the obtained mixture and the density of the solution was adjusted to 1.063, and the solution was subjected to density gradient centrifugation (40000 rpm, 18 hours) to provide the fraction consisting of IDL (intermediate density lipoprotein) and LDL (1.019<density<1.063). The obtained fraction was dialyzed with the PBS solution. The obtained mixture was designated as the acceptor lipoprotein.
(3) Measurement of CETP Inhibition Activity
A recombinant human CETP protein (manufactured by Roar Biomedical Inc.; 4.5 ng), the acceptor lipoprotein described in (2) above (32.5 μg) and 5,5′-dithio-bis-(2-nitrobenzoic acid) (7 mM, 15 μl) were taken in a 96 well plate and the total amount of the mixture was adjusted to 48.5 μl with the PBS solution. The test compound [DMSO solution (concentration: 0.15, 0.5, 1.5, 5, 15, 50, 150 and 500 μM); 1.5 μl] was added to each well and the mixture was incubated in a thermostatic bath at 37° C. for 60 minutes. The reconstituted HDL (50 μl) described in (1) above was added to each well and the mixture was reacted in a thermostatic bath at 37° C. for 60 minutes. The 96 well plate was moved onto ice and a precipitation reagent [a mixed solution of magnesium chloride (60 mM) and 0.1% dextran sulfate[1/1(v/v)]; 15 μl] was added to each well, and then the mixture was allowed to stand on ice for 15 minutes. The reaction solution (80 μl) in each well was moved to a filter plate and centrifuged at 1500 rpm for 1 minute, and the filtrate which passed through the filter was designated as the HDL fraction and the radioactivity thereof was measured with a scintillation counter. The percentage decrease in radioactivity in the case where the test compound was added in comparison with that in case where the test compound was not added was designated as the percentage CETP inhibition. The IC50 value was calculated from the percentage CETP inhibition.

recombinant human CETP protein, sequence (P11597 18-493): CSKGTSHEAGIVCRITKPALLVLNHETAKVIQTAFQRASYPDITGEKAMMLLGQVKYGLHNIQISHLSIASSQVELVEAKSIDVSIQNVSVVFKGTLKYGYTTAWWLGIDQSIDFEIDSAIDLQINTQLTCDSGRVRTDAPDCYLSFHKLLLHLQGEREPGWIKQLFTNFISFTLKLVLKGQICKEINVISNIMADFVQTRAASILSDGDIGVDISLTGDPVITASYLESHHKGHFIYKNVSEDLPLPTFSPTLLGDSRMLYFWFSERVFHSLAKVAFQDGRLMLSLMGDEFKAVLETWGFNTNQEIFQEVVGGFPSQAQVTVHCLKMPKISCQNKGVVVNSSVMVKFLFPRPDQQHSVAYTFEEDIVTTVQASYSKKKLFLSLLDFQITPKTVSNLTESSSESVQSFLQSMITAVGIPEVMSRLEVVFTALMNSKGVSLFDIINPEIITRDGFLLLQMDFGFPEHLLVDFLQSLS

Compound | IC50 (dihydrobromide) | other results
CC1(C)Cc2nc(C3CCN(c4ncc(OCCCS(C)(=O)=O)cn4)CC3)c([C@@H](F)c3ccc(C(F)(F)F)cc3)c(C3CCC(F)(F)CC3)c2[C@@H](O)C1 [Example 18, (5S)-4-(4,4-Difluorocyclohexyl)-3-{(S)-fluoro[4-(trifluoromethyl)phenyl]methyl}-7,7-dimethyl-2-(1-{5-[3-(methylsulfonyl)propoxy]pyrimidin-2-yl}piperidin-4-yl)-5,6,7,8-tetrahydroquinolin-5-ol dihydrobromide] | 18.9 nM | 
CC1(C)Cc2nc(C3CCN(c4ncc(OCCCS(C)(=O)=O)cn4)CC3)c([C@@H](F)c3ccc(C(F)(F)F)cc3)c(C3CCC(F)(F)CC3)c2[C@@H](O)C1 [Example 19, (5S)-4-(4,4-Difluorocyclohexyl)-3-{(S)-fluoro[4-(trifluoromethyl)phenyl]methyl}-7,7-dimethyl-2-(1-{5-[3-(methylsulfonyl)propoxy]pyrimidin-2-yl}piperidin-4-yl)-5,6,7,8-tetrahydroquinolin-5-ol methanesulfonate] |  | IC50: 22.9 nM
CC1(C)Cc2nc(C3CCN(c4ncc(-c5cccc(C(=O)O)c5)cn4)CC3)c([C@@H](F)c3ccc(C(F)(F)F)cc3)c(C3CCC(F)(F)CC3)c2[C@@H](O)C1 [Example 20, (5S)-2-{1-[5-(3-Carboxyphenyl)pyrimidin-2-yl]piperidin-4-yl}-4-(4,4-difluorocyclohexyl)-3-{(S)-fluoro[4-(trifluoromethyl)phenyl]methyl}-7,7-dimethyl-5,6,7,8-tetrahydroquinolin-5-ol dihydrochloride] |  | IC50 (dihydrochloride): 289 nM
CC1(C)Cc2nc(C3CCN(c4ncc(-c5cccc(C(=O)O)c5)cn4)CC3)c([C@@H](F)c3ccc(C(F)(F)F)cc3)c(C3CCC(F)(F)CC3)c2[C@@H](O)C1 [Example 21, (5S)-2-{1-[5-(3-Carboxyphenyl)pyrimidin-2-yl]piperidin-4-yl}-4-(4,4-difluorocyclohexyl)-3-{(S)-fluoro[4-(trifluoromethyl)phenyl]methyl}-7,7-dimethyl-5,6,7,8-tetrahydroquinolin-5-ol dihydrobromide] | 279 nM | 
